The results in this text go back to patent US9585957B2, “Adenosine receptor agonists and antagonists to modulate T cell responses” (THE JOHNS HOPKINS UNIVERSITY, priority 2007, dated 2017).

One assay deals with B16 melanoma cells. Description: B16 melanoma lung metastases in mice treated with TA99 antibody, with or without ZM. In kind it is in vivo. Conditions: Wt mice, 200 ug TA99 on day +1 plus ZM 10 mg/kg IP twice a day from Day 0; Day +15 (FIG. 17). As to the method: Wt and A2a receptor null mice received 1 million B16 melanoma cells IV on day 0. Control mice received not treatment. Treated mice received 200 ug IP of TA99 antibody on days 0, 2, 5. The mice were sacrificed on Day 15 and lung mets were counted.
Wt mice received 1 million B16 melanoma cells on Day 0. On day +1 they received either no treatment or 200 ug of TA99 antibody. Zm treated mice received 10 mg/kg IP of ZM twice a day beginning on Day 0 and continuing for the remainder of the experiment. The mice were evaluated on Day +15.
Wt and A2a receptor null mice received 1 million B16 melanoma cells IV on day 0. Control mice received not treatment. Treated mice received 200 ug IP of TA99 antibody on days 0, 2, 5. The mice were sacrificed on Day 15 and lung metastases were counted. […] Eliminating A2a receptor activity in the mice reduced melanoma metastases by approximately 50% and treatment with the antibody reduced metastases by approximately 60%. However, when knock out mice are treated with the antibody, the level of tumor metastases dropped by approximately 80% when compared to untreated wild type, and by 50% or more when compared to either the knock out or antibody treated wild type mice.

For another assay, the system named is LAG-3. Description: LAG-3 upregulation in A.E7 T cells (ionomycin or PMA stimulation; CsA). In kind it is cell-based. Conditions: ionomycin alone (FIG. 3c). The text has this:
FIGS. 3(a)-(f) are graphs showing that A2a receptor signaling promotes the upregulation of LAG-3^+ in vitro. […] Data are representative of 3 independent experiments. 3(c) is a graph of LAG3 upregulation in A.E7 T cells following stimulation with ionomycin or PMA. 3(d) is an image of representative Western blots for phosphor-ERK and total ERK (top and bottom respectively). […] Data are representative of 3 independent experiments. 3(e) is an image of representative Western blots for junB, and actin (top and bottom, respectively). […] Data are representative of 3 independent experiments. 3(f) is an image of representative EMSA for AP-1. […] Data are representative of 3 independent experiments.

Structures are written as SMILES.

Consider `Nc1nc(NCCc2ccc(O)cc2)nc2nc(-c3ccco3)nn12` [ZM, 4-(2-[7-amino-2-(2-furyl)[1,2,4]triazolo[2,3-a][1,3,5]triazin-5-ylamino]ethyl)phenol], for which, in the assay on B16 melanoma cells, the “reduction of average lung metastases, antibody in combination with ZM” value is recorded as “approximately 80%”. Take `C[C@H](CCC(=O)O)C[C@H](C)C[C@H](C)C(=O)/C=C(\O)[C@H](C)C[C@H](C)C/C=C/[C@@H](C)[C@@H](O)[C@@H](C)[C@@H](O)C[C@@H]1CC[C@@](C)([C@H]2CC[C@@](C)([C@@H](C)O)O2)O1` [ionomycin]: the LAG-3 upregulation result in the assay on LAG-3 is reported as “markedly upregulated”.
